Drawing on US8906909B2 (Curis, Inc., priority 2009, dated 2014), this text covers IC50 for 60 molecules.

Some results are limits rather than exact numbers.

The test system of the test is HDACs (HeLa cell nuclear extracts). Kind of test: HDAC enzymatic activity, Biomol Color de Lys system. The test is classed as biochemical. The protocol:
(e) An In Vitro Assay which Determines the Ability of a Test Compound to Inhibit HDAC Enzymatic Activity.
HDAC inhibitory activity was assessed using the Biomol Color de Lys system (AK-500, Biomol, Plymouth Meeting, Pa.). Briefly, HeLa cell nuclear extracts were used as a source of HDACs. Different concentrations of test compounds were serially diluted in dimethylsulphoxide (DMSO) and added to HeLa cell nuclear extracts in the presence of a colorimetric artificial substrate. Final assay condition contained 50 mM Tris/Cl, pH 8.0, 137 mM NaCl, 2.7 mM KCl and 1 mM MgCl2. Reactions were carried in room temperature (25° C.) for 1 hour before addition of developer for termination. Relative enzyme activity was measured in the WALLAC Victor II 1420 microplate reader as floorescence intensity (excitation: 350-380 nm; emission: 440-460 nm). Data were analyzed using GraphPad Prism (v4.0a) with a sigmoidal dose response curve fitting for IC50 calculation.

One may read the IC50 as the concentration needed to halve the response being measured. Consider `O=C(CCCCNc1cc2nc(-c3cccc4[nH]ncc34)nc(N3CCOCC3)c2s1)NO` [Compound 18], for which the concentration for half-maximal inhibition (IC50) is less than 100 nM.

With `O=C(CCCCCNc1cc2nc(-c3cccc4[nH]ncc34)nc(N3CCOCC3)c2s1)NO` [Compound 19], the IC50 is less than 100 nM.

In turn, `O=C(CCCCCCNc1cc2nc(-c3cccc4[nH]ncc34)nc(N3CCOCC3)c2s1)NO` [Compound 20] showed a half-inhibitory concentration (IC50) of less than 100 nM.

Regarding `CS(=O)(=O)N1CCN(Cc2cc3nc(-c4cccc5[nH]ncc45)nc(NCCCCC(=O)NO)c3s2)CC1` [Compound 34], the IC50 was in the range of 100 to 1000 nM.

`CS(=O)(=O)N1CCN(Cc2cc3nc(-c4cccc5[nH]ncc45)nc(NCCCCCC(=O)NO)c3s2)CC1` [Compound 35]: the 50% inhibitory concentration (IC50) is less than 100 nM.

Regarding `CS(=O)(=O)N1CCN(Cc2cc3nc(-c4cccc5[nH]ncc45)nc(NCCCCCCC(=O)NO)c3s2)CC1` [Compound 36], the IC50 is less than 100 nM.

Turning to `O=C(NO)c1cc2nc(-c3cccc4[nH]ncc34)nc(N3CCOCC3)c2s1` [Compound 45], the half-inhibitory concentration (IC50) is more than 10000 nM.

`O=C(/C=C/c1cc2nc(-c3cccc4[nH]ncc34)nc(N3CCOCC3)c2s1)NO` [Compound 46] displayed an IC50 of 1000 to 10000 nM.

Take `O=C(NO)c1cnc(N2CCC(CNc3cc4nc(-c5cccc6[nH]ncc56)nc(N5CCOCC5)c4s3)CC2)nc1` [Compound 48]: the concentration for half-maximal inhibition (IC50) was less than 100 nM.

Regarding `CN(CC1CCN(c2ncc(C(=O)NO)cn2)CC1)c1cc2nc(-c3cccc4[nH]ncc34)nc(N3CCOCC3)c2s1` [Compound 49], the IC50 is 100 to 1000 nM.

As for `O=C(/C=C/c1ccc(S(=O)(=O)Nc2cc3nc(-c4cccc5[nH]ncc45)nc(N4CCOCC4)c3s2)cc1)NO` [Compound 50], the half-inhibitory concentration (IC50) was less than 100 nM.

Take `O=C(NO)c1cnc(N2CCN(S(=O)(=O)c3cc4nc(-c5cccc6[nH]ncc56)nc(N5CCOCC5)c4s3)CC2)nc1` [Compound 51]: the IC50 was 100 to 1000 nM.

The molecule `CN(Cc1cc2nc(-c3cccc4[nH]ncc34)nc(N3CCNCC3)c2s1)c1ncc(C(=O)NO)cn1` [Compound 60] displayed an IC50 of less than 100 nM.

As to `CN1CCN(c2nc(-c3cccc4[nH]ncc34)nc3cc(CN(C)c4ncc(C(=O)NO)cn4)sc23)CC1` [Compound 61], the IC50 is less than 100 nM.

Turning to `CC(=O)N1CCN(c2nc(-c3cccc4[nH]ncc34)nc3cc(CN(C)c4ncc(C(=O)NO)cn4)sc23)CC1` [Compound 62], the half-maximal inhibitory concentration (IC50) is less than 100 nM.

Take `CN(Cc1cc2nc(-c3cccc4[nH]ncc34)nc(N3CCN(CCO)CC3)c2s1)c1ncc(C(=O)NO)cn1` [Compound 63]: the IC50 was less than 100 nM.

On to `CC1CN(c2nc(-c3cccc4[nH]ncc34)nc3cc(CN(C)c4ncc(C(=O)NO)cn4)sc23)CC(C)O1` (stereo not drawn) [Compound 65], for which the 50% inhibitory concentration (IC50) was less than 100 nM.

As for `CC1COCC(C)N1c1nc(-c2cccc3[nH]ncc23)nc2cc(CN(C)c3ncc(C(=O)NO)cn3)sc12` (stereo not drawn) [Compound 66], the IC50 is less than 100 nM.

As for `CN(Cc1cc2nc(-c3cccc4[nH]ncc34)nc(N3CCCCC3)c2s1)c1ncc(C(=O)NO)cn1` [Compound 67], the IC50 is less than 100 nM.

As for `Cc1c(CN(C)c2ncc(C(=O)NO)cn2)sc2c(N3CCOCC3)nc(-c3cccc4[nH]ncc34)nc12` [Compound 68], the IC50 is less than 100 nM.

With `CC(C)(Nc1ncc(C(=O)NO)cn1)c1cc2nc(-c3cccc4[nH]ncc34)nc(N3CCOCC3)c2s1` [Compound 71], the IC50 was less than 100 nM.

Molecule `O=C(NO)c1cnc(NCc2cc3cc(-c4cccc5[nH]ncc45)nc(N4CCOCC4)c3s2)nc1` [Compound 73] displayed an IC50 of less than 100 nM.

`CN(Cc1cc2cc(-c3cccc4[nH]ncc34)nc(N3CCOCC3)c2s1)c1ncc(C(=O)NO)cn1` [Compound 74] displayed an IC50 of less than 100 nM.

Consider `CN(Cc1cc2nc(-c3cccc4[nH]ncc34)nc(N3CCOCC3)c2s1)c1ccc(C(=O)NO)cc1` [Compound 79], for which the concentration for half-maximal inhibition (IC50) was less than 100 nM.

As for `O=C(O)CN(Cc1cc2nc(-c3cccc4[nH]ncc34)nc(N3CCOCC3)c2s1)c1ncc(C(=O)NO)cn1` [Compound 88], the IC50 lay within 100 to 1000 nM.

In the case of `COC(=O)CN(Cc1cc2nc(-c3cccc4[nH]ncc34)nc(N3CCOCC3)c2s1)c1ncc(C(=O)NO)cn1` [Compound 89], the IC50 was less than 100 nM.

With `NCCN(Cc1cc2nc(-c3cccc4[nH]ncc34)nc(N3CCOCC3)c2s1)c1ncc(C(=O)NO)cn1` [Compound 94], the IC50 is less than 100 nM.

`CN(C)CCN(Cc1cc2nc(-c3cccc4[nH]ncc34)nc(N3CCOCC3)c2s1)c1ncc(C(=O)NO)cn1` [Compound 95] displayed an IC50 of 100 to 1000 nM.

Molecule `CC(=O)NCCN(Cc1cc2nc(-c3cccc4[nH]ncc34)nc(N3CCOCC3)c2s1)c1ncc(C(=O)NO)cn1` [Compound 96] displayed an IC50 of less than 100 nM.

With `NC(=O)CN(Cc1cc2nc(-c3cccc4[nH]ncc34)nc(N3CCOCC3)c2s1)c1ncc(C(=O)NO)cn1` [Compound 97], the IC50 was less than 100 nM.

The molecule `C#CCCN(Cc1cc2nc(-c3cccc4[nH]ncc34)nc(N3CCOCC3)c2s1)c1ncc(C(=O)NO)cn1` [Compound 98] registered an IC50 of less than 100 nM.

`O=C(NO)c1ccc2c(ccn2Cc2cc3nc(-c4cccc5[nH]ncc45)nc(N4CCOCC4)c3s2)c1` [Compound 105] came in with a concentration for half-maximal inhibition (IC50) of 100 to 1000 nM.

As to `Cn1cc(CNc2cc3nc(-c4cccc5[nH]ncc45)nc(N4CCOCC4)c3s2)c2cc(C(=O)NO)ccc21` [Compound 106], the IC50 was 1000 to 10000 nM.

On to `CN(Cc1cc2nc(-c3cnc(C(N)=O)nc3)nc(N3CCOCC3)c2s1)c1ncc(C(=O)NO)cn1` [Compound 122], for which the IC50 was less than 100 nM.

Regarding `CN(Cc1cc2nc(-c3cccc(C(N)=O)c3)nc(N3CCOCC3)c2s1)c1ncc(C(=O)NO)cn1` [Compound 142, 2-(((2-(3-carbamoylphenyl)-4-morpholinothieno[3,2-d]pyrimidin-6-yl)methyl)(methyl)amino)-N-hydroxypyrimidine-5-carboxamide], the IC50 was less than 100 nM.

For the molecule `CCN(CC)c1nc(-c2cccc3[nH]ncc23)nc2cc(CN(C)c3ncc(C(=O)NO)cn3)sc12` [Compound 158], the half-inhibitory concentration (IC50) was less than 100 nM.

`CN(C)c1nc(-c2cccc3[nH]ncc23)nc2cc(CN(C)c3ncc(C(=O)NO)cn3)sc12` [Compound 159] yielded a 50% inhibitory concentration (IC50) of less than 100 nM.

`COCCNc1nc(-c2cccc3[nH]ncc23)nc2cc(CN(C)c3ncc(C(=O)NO)cn3)sc12` [Compound 160] displayed a half-inhibitory concentration (IC50) of less than 100 nM.

Regarding `CN(Cc1cc2nc(-c3cccc4[nH]ncc34)nc(NCCO)c2s1)c1ncc(C(=O)NO)cn1` [Compound 161], the IC50 was less than 100 nM.

Take `CN(Cc1cc2nc(-c3cccc4[nH]ncc34)nc(N(CCO)CCO)c2s1)c1ncc(C(=O)NO)cn1` [Compound 162]: the half-maximal inhibitory concentration (IC50) is less than 100 nM.

`COCCN(CCOC)c1nc(-c2cccc3[nH]ncc23)nc2cc(CN(C)c3ncc(C(=O)NO)cn3)sc12` [Compound 163] gave an IC50 of less than 100 nM.

Regarding `COc1ccc(Nc2nc(-c3cccc4[nH]ncc34)nc3cc(CN(C)c4ncc(C(=O)NO)cn4)sc23)cc1` [Compound 165], the half-inhibitory concentration (IC50) was less than 100 nM.

`COc1cccc(Nc2nc(-c3cccc4[nH]ncc34)nc3cc(CN(C)c4ncc(C(=O)NO)cn4)sc23)c1` [Compound 166]: the half-maximal inhibitory concentration (IC50) was less than 100 nM.

On to `COc1ccccc1Nc1nc(-c2cccc3[nH]ncc23)nc2cc(CN(C)c3ncc(C(=O)NO)cn3)sc12` [Compound 167], for which the IC50 was less than 100 nM.

Turning to `CN(Cc1cc2nc(-c3cccc4c3CC(=O)N4)nc(N3CCOCC3)c2s1)c1ncc(C(=O)NO)cn1` [Compound 178], the IC50 is less than 100 nM.

`CN(Cc1cc2nc(-c3cccc4c3CNC4=O)nc(N3CCOCC3)c2s1)c1ncc(C(=O)NO)cn1` [Compound 181]: the concentration for half-maximal inhibition (IC50) is less than 100 nM.

In turn, `CN(Cc1cc2nc(-c3ccc4c(c3)NC(=O)CO4)nc(N3CCOCC3)c2s1)c1ncc(C(=O)NO)cn1` [Compound 183] showed a half-maximal inhibitory concentration (IC50) of less than 100 nM.

With `CN(Cc1cc2nc(-c3c[nH]c4ccccc34)nc(N3CCOCC3)c2s1)c1ncc(C(=O)NO)cn1` [Compound 184], the IC50 is less than 100 nM.

Molecule `CN(Cc1cc2nc(-c3ccc4c(c3)OCCN4)nc(N3CCOCC3)c2s1)c1ncc(C(=O)NO)cn1` [Compound 191] came in with an IC50 of less than 100 nM.

In turn, `CN(Cc1cc2nc(-c3ccc4[nH]ccc4c3)nc(N3CCOCC3)c2s1)c1ncc(C(=O)NO)cn1` [Compound 192] yielded a half-maximal inhibitory concentration (IC50) of less than 100 nM.

The molecule `CN(Cc1cc2nc(-c3ccc4c(c3)CCN4)nc(N3CCOCC3)c2s1)c1ncc(C(=O)NO)cn1` [Compound 193] displayed an IC50 of less than 100 nM.

For `O=C(NO)c1ccc(CNCc2cc3nc(-c4cccc5[nH]ncc45)nc(N4CCOCC4)c3s2)cc1` [Compound 203], the IC50 is 100 to 1000 nM.

`O=C(/C=C/c1ccc(CNCc2cc3nc(-c4cccc5[nH]ncc45)nc(N4CCOCC4)c3s2)cc1)NO` [Compound 204] registered an IC50 of 100 to 1000 nM.

Consider `CN(Cc1cc2nc(-c3ccc(N)cc3)nc(N3CCOCC3)c2s1)c1ccc(C(=O)NO)cc1` [Compound 206], for which the IC50 was less than 100 nM.

Molecule `Nc1ccc(-c2nc(N3CCOCC3)c3sc(CN4CCN(c5ncc(C(=O)NO)cn5)CC4)cc3n2)cc1` [Compound 207] showed a half-inhibitory concentration (IC50) of less than 100 nM.

`Nc1ccc(-c2nc(N3CCOCC3)c3sc(CNCc4ccc(C(=O)NO)cc4)cc3n2)cc1` [Compound 209] showed an IC50 of less than 100 nM.

In turn, `Nc1ccc(-c2nc(N3CCOCC3)c3sc(CNCc4ccc(/C=C/C(=O)NO)cc4)cc3n2)cc1` [Compound 210] showed a concentration for half-maximal inhibition (IC50) of 100 to 1000 nM.

As to `CC(c1cc2nc(-c3ccc(N)cc3)nc(N3CCOCC3)c2s1)N(C)c1ncc(C(=O)NO)cn1` (stereo not drawn) [Compound 214], the IC50 was less than 100 nM.

`CCN(Cc1cc2nc(-c3ccc(N)cc3)nc(N3CCOCC3)c2s1)c1ncc(C(=O)NO)cn1` [Compound 215] had an IC50 of less than 100 nM.

For the molecule `O=C(/C=C/c1cccc(S(=O)(=O)Nc2cc3nc(-c4cccc5[nH]ncc45)nc(N4CCOCC4)c3s2)c1)NO` [Compound 216], the IC50 is less than 100 nM.
